Results published in patent US20210346398A1, “COMBINATIONS WITH A C-19 STEROID FOR TREATING CANCERS” (priority 2018, published 2021).
“And” between values parts separate entries of the source, which are not always exact repeats. Equal entries are not always repeated.

What was measured:
[1] = tested on: T-47D cells; assay: WST-1 proliferation assay of T-47D cells; format: cell-based, human; settings: for Single drug: absorbance at 450 nm as % of solvent control / Combi: absorbance at 450 nm as % of solvent control, agent in combination with 4-OHT / SE1 (synergistic effect, A anti-cancer compound alone / A combination): 4 days; for Single drug: absorbance at 450 nm as % of solvent control: OHT 10 or 20 μM, EN 10 μM, ETM 25 nM, FUL 1.0 μM, EXE 0.1 μM, Pab 50 nM, Doc 1.0 nM; for Combi: absorbance at 450 nm as % of solvent control, agent in combination with 4-OHT: agent at the single drug concentration plus 4-OHT; for SE1 (synergistic effect, A anti-cancer compound alone / A combination): agent plus 4-OHT versus agent alone; for growth inhibition by the combination with 4-OHT compared to the individual substances alone: FIG. 2, 7 days
Description: The human breast cancer cell line T-47 D (ACC 739) was obtained from DSMZ as frozen cell pellet (Deutsche Sammlung von Mikroorganismen und Zellkulturen). Originally, these cells T-47D cell line was isolated by Keydar et al. (1979) from a pleural effusion obtained from a patient with an infiltrating ductal carcinoma of the breast T-47D is expressing the ER, PR and AR but lacking HER2/neu overexpression. Thus, T-47D may represent a cell line representative for the most prevalent breast cancer subtype.
T-47D were grown routinely in RPMI medium containing 10% fetal calf serum (FCS) and antibiotics in a humidified incubator at 36.5° C./90% humidity and 5% CO2. Cells were maintained in cell culture bottles for less than 20 passages before the individual experiments were conducted; cell suspensions were cultured 96 well plates and exposed at various concentrations of the individual agents; incubation time varied as indicated in the respective figures. WST-1 assay was used to monitor proliferation at 450 nm wavelength.
Growth was as compared to control using WST-1 assay (monitoring absorption at 450 nm wavelength as indicator for cell viability compared to growth control).
(§1) T-47D cells were grown routinely in RPMI medium containing 10% fetal calf serum (FCS) and antibiotics in a humidified incubator at 36.5° C./90% humidity and 5% CO2. […] WST-1 assay was used to monitor proliferation at 450 nm wavelength.

[2] = tested on: ZR-75-1; assay: WST-1 proliferation assay of ZR-75-1 cells; format: cell-based, human; settings: 4 days; for Single drug: absorbance at 450 nm as % of solvent control: OHT 10 or 20 μM, EN 10 μM, ETM 25 nM, FUL 1.0 μM, EXE 0.1 μM, Pab 50 nM, Doc 1.0 nM; for Combi: absorbance at 450 nm as % of solvent control, agent in combination with 4-OHT: agent at the single drug concentration plus 4-OHT; for SE1 (synergistic effect, A anti-cancer compound alone / A combination): agent plus 4-OHT versus agent alone
[3] = tested on: MDAMB453; assay: WST-1 proliferation assay of MDAMB453 cells; format: cell-based, human; settings: 4 days; for Single drug: absorbance at 450 nm as % of solvent control: OHT 10 or 20 μM, EN 5 μM, ETM 25 nM, FUL 1.0 μM, EXE 0.1 μM, Pab 50 nM, Doc 1.0 nM; for Combi: absorbance at 450 nm as % of solvent control, agent in combination with 4-OHT: agent at the single drug concentration plus 4-OHT; for SE1 (synergistic effect, A anti-cancer compound alone / A combination): agent plus 4-OHT versus agent alone
[4] = tested on: VCaP cells; assay: WST-1 proliferation assay of VCaP cells; settings: for absorbance at 450 nm as % of solvent control, single compound: EN 10 μM, ABI 10 μM, 4-OHT concentration not stated; for Combi: absorbance at 450 nm as % of solvent control, agent in combination with 4-OHT: EN 10 μM or ABI 10 μM plus 4-OHT
[5] = tested on: LNCaP cells; assay: WST-1 proliferation assay of LNCaP cells; settings: for absorbance at 450 nm as % of solvent control, single compound: EN 10 μM, ABI 10 μM, 4-OHT concentration not stated; for Combi: absorbance at 450 nm as % of solvent control, agent in combination with 4-OHT: EN 10 μM or ABI 10 μM plus 4-OHT
[6] = tested on: ZR-75-1N cells; assay: WST-1 proliferation assay of ZR-75-1N cells; format: cell-based, human; settings: FIG. 3B, 4-OHT 20 μM plus Docetaxel 1, 2, 4, 8 nM, 5 days, average of 3 experiments
Procedure: as §1
Further the human breast cancer cell line ZR-75-1N was cultured as described above and subjected to 4-OHT at a concentration of 20 μM and Docextaxel (Doc) at various concentrations (1, 2, 4, and 8 nM)) as single drugs or in combination for 5 days.

[7] = FIG. 4A, 4-OHT 10 μM, Bicalutamide 5 or 10 μM, Enzalutamide 5 or 10 μM, day 5

Row | SMILES | Single drug: absorbance at 450 nm as % of solvent control [1] | absorbance at 450 nm as % of solvent control, single compound [4] | absorbance at 450 nm as % of solvent control, single compound [5] | Combi: absorbance at 450 nm as % of solvent control, agent in combination with 4-OHT [1] | Single drug: absorbance at 450 nm as % of solvent control [2] | Combi: absorbance at 450 nm as % of solvent control, agent in combination with 4-OHT [2] | Single drug: absorbance at 450 nm as % of solvent control [3] | Combi: absorbance at 450 nm as % of solvent control, agent in combination with 4-OHT [3] | SE1 (synergistic effect, A anti-cancer compound alone / A combination) [1] | SE1 (synergistic effect, A anti-cancer compound alone / A combination) [2] | SE1 (synergistic effect, A anti-cancer compound alone / A combination) [3] | further results
1 | C[C@]12CC[C@H]3[C@@H](CCC4=C(O)C(=O)CC[C@@]43C)[C@@H]1CC[C@@H]2O [4-OHT, 4-hydroxytestosterone] | 50 % of solvent control | 33 % of solvent control | 78 % of solvent control | – | – | – | – | – | – | – | – | Single drug: absorbance at 450 nm as % of solvent control ([2]; listed as OH20): 71 % of solvent control; Single drug: absorbance at 450 nm as % of solvent control ([3]; listed as OHT): 55 % of solvent control and 40 % of solvent control; Single drug: absorbance at 450 nm as % of solvent control ([3]; listed as OHT20): 76 % of solvent control; effect on cell growth as single compound ([4]; FIG. 4B): very sensitive; effect on cell growth as single compound [5, 7]: only a slight effect; effect on cell growth as single compound ([5]; FIG. 5, 4-OHT 10 μM, Abiraterone 10 μM, day 5): only a slight effect
2 | C[C@]12CC[C@H](O)CC1=CC[C@@H]1[C@@H]2CC[C@]2(C)C(c3cccnc3)=CC[C@@H]12 [Abiraterone] | – | 104 % of solvent control | 96 % of solvent control | – | – | – | – | – | – | – | – | Combi: absorbance at 450 nm as % of solvent control, agent in combination with 4-OHT [4]: 28.11 % of solvent control; Combi: absorbance at 450 nm as % of solvent control, agent in combination with 4-OHT [5]: 90.57 % of solvent control
3 | CC(=O)O[C@@]12CO[C@@H]1C[C@H](O)[C@@]1(C)C(=O)[C@H](O)C3=C(C)[C@@H](OC(=O)[C@H](O)[C@@H](NC(=O)OC(C)(C)C)c4ccccc4)C[C@@](O)([C@@H](OC(=O)c4ccccc4)[C@H]21)C3(C)C [Docetaxel] | 31 % of solvent control | – | – | 20 % of solvent control | 72 % of solvent control | 43 % of solvent control | 103 % of solvent control | 89 % of solvent control | – | – | – | effect on proliferation of the combination with 4-OHT compared to the single drugs ([1]; FIG. 3A, Docetaxel 1, 2, 4, 8 nM, 5 days): synergistic effect; effect on proliferation of the combination with 4-OHT [6]: clear effect of the combination is seen at the lowest dose
4 | CC/C(=C(\c1ccc(O)cc1)c1ccc(OCCNC)cc1)c1ccccc1 [Endoxifen] | 54 % of solvent control | – | – | 35 % of solvent control | 84 % of solvent control | 49 % of solvent control | 113 % of solvent control | 39 % of solvent control | 1.5 | 1.7 | 1.2 | –
5 | CNC(=O)c1ccc(N2C(=S)N(c3ccc(C#N)c(C(F)(F)F)c3)C(=O)C2(C)C)cc1F [Enzalutamide] | 62 % of solvent control | 32 % of solvent control | 84 % of solvent control | 28 % of solvent control | 71 % of solvent control | 55 % of solvent control | 66 % of solvent control | 57 % of solvent control | 2.2 | 1.3 | 1.2 | Combi: absorbance at 450 nm as % of solvent control, agent in combination with 4-OHT [4]: 30 % of solvent control; effect on cell growth as single compound ([4]; FIG. 4B): very sensitive; effect on cell growth of the combination with 4-OHT ([4]; FIG. 4B): synergistic effect; Combi: absorbance at 450 nm as % of solvent control, agent in combination with 4-OHT [5]: 58 % of solvent control; effect on cell growth of the combination with 4-OHT ([5]; FIG. 4A, 4-OHT 10 μM plus Bicalutamide 10 μM or Enzalutamide 10 μM, day 5): growth inhibition with a significant synergistic effect; effect on cell growth as single compound [5, 7]: not affected
6 | C=C1C[C@@H]2[C@H](CC[C@]3(C)C(=O)CC[C@@H]23)[C@@]2(C)C=CC(=O)C=C12 [Exemestane] | 70 % of solvent control | – | – | 47 % of solvent control | 81 % of solvent control | 57 % of solvent control | 118 % of solvent control | 33 % of solvent control | – | – | – | growth inhibition by the combination with 4-OHT compared to the individual substances alone [1]: significant growth inhibition
7 | C[C@]12CC[C@@H]3c4ccc(O)cc4C[C@@H](CCCCCCCCC[S+]([O-])CCCC(F)(F)C(F)(F)F)[C@H]3[C@@H]1CC[C@@H]2O (stereo partly shown) [Fulvestrant] | 38 % of solvent control | – | – | 22 % of solvent control | 90 % of solvent control | 43 % of solvent control | 80 % of solvent control | 27 % of solvent control | – | – | – | growth inhibition by the combination with 4-OHT compared to the individual substances alone [1]: significant growth inhibition
8 | CC(=O)c1c(C)c2cnc(Nc3ccc(N4CCNCC4)cn3)nc2n(C2CCCC2)c1=O [Palbociclib] | 80 % of solvent control | – | – | 33 % of solvent control | 91 % of solvent control | 71 % of solvent control | 112 % of solvent control | 120 % of solvent control | 2.4 | 1.3 | 0.9 | –
